# Reference: patent US6939888B2, “1-H-3-arylpirrolidine-2,4-dione derivatives” (Bayer Aktiengesellschaft, priority 1994, dated 2005)
# How the values were obtained:
# [1] = system: caterpillars of the diamond-back moth (Plutella maculipennis); test: Plutella test (cabbage leaf dip); assay type: in vivo; settings: after 7 days; concentration of active compound 0.001%; cabbage leaves (Brassica olearacea) dipped
# Method: Plutella Test [table] To produce a suitable preparation of active compound, 1 part by weight of active compound is mixed with the stated amount of solvent and the stated amount of emulsifier, and the concentrate is diluted with water to the desired concentration. Cabbage leaves (Brassica olearacea) are treated by being dipped into the preparation of active compound of the desired concentration and are infested with caterpillars of the diamond-back moth (Plutella maculipennis) while the leaves are still moist. After the specified periods of time, the destruction in % is determined. 100% means that all the caterpillars have been killed; 0% means that none of the caterpillars have been killed.
# [2] = system: greenhouse red spider mite (Tetranychus urticae); test: Tetranychus test (OP resistant), sprayed bean plants; assay type: in vivo; settings: after 7 days; concentration of active compound 0.00016%; bean plants (Phaseolus vulgaris) sprayed, all development stages
# Method: Tetranychus Test (OP Resistant)
# To produce a suitable preparation of active compound, 1 part by weight of active compound is mixed with the stated amount of solvent and the stated amount of emulsifier, and the concentrate is diluted with emulsifier-containing water to the desired concentration.
# Bean plants (Phaseolus vulgaris) which are severely infested with all development stages of the greenhouse red spider mite (Tetranychus urticae) are sprayed with a preparation of active compound of the desired concentration.
# After the specified periods of time, the destruction in % is determined. 100% means that all the spider mites have been killed; 0% means that none of the spider mites have been killed.
Structure (SMILES),destruction rate [1] [%],destruction rate [2]
CC(=O)OC1=C(c2c(C)cc(C)cc2C)C(=O)NC12CCCCC2 [(B)],10,
CC(C)C1(C)NC(=O)C(c2ccc(Cl)cc2Cl)=C1OC(=O)C(C)(C)C (stereo not drawn) [(D)],,no destruction
CCOC(=O)OC1=C(c2ccc(Cl)cc2Cl)C(=O)NC1(C)C(C)C (stereo not drawn) [(E)],,no destruction
